Data taken from patent US6809233B2, “DNA sequences for an amino acid transporter plasmids, bacteria, yeasts and plants containing a transporter and their use” (Hoechst Schering AgrEvo GmbH, priority 1992, dated 2004).

Target: T1, amino acid transporter (PPP1-20, SEQ ID No. 1) in 22574d::PPP1-20 yeast strain (Arabidopsis thaliana, UniProt Q42400)
T1 construct: expressed in transfected cells; host or cells: Saccharomyces cerevisiae strain 22574d transformed with pFL61-ppp1-20
T1 sequence (Q42400 1-485): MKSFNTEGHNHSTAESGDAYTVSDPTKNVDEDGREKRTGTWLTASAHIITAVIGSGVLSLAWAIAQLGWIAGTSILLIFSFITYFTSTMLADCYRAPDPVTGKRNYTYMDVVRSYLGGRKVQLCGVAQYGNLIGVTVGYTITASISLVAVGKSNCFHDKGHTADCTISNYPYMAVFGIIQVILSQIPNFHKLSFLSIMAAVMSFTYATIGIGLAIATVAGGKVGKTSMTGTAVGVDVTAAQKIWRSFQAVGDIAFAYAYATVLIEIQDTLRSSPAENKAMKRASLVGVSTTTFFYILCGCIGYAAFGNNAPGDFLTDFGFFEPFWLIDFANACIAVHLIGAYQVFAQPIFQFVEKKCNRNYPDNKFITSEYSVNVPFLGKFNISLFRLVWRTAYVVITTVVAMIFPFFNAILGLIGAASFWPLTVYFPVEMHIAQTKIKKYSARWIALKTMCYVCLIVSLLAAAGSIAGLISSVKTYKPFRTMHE
Experiment: Competition of 14C-L-proline uptake by excess of amino acids and analogues in 22574d::PPP1-20 yeast strain
Format: cell-based
Protocol: After centrifuging the culture, the cells are washed and taken up in 100 mm tris/HCl pH 4.5, 2 mM MgCl2 and 0.6M sorbitol. Around 100 μL of the suspension was added to a solution of 0.5 mM L-proline plus 1 μCi ^14C labeled L-proline in 100 μL of the same buffer. The uptake of the labeled amino acid was measured by the process described by Cirillo (1989, Meth Enzymol 174: 617-622). The uptake of the labeled amino acid was compared, on the one hand, in co-incubation with protein modifying substance diethyl pyrocarbonate which is an inhibitor of the amino acid transport in membrane vesicles from Beta vulgaris, and, on the other hand, in co-incubation with other protein modifying substances. A competition experiment in which the specificity of the transporter could be read off with various amino acids and analogues is shown in Table II for PPP1-20 and in FIG. 4 for AAP2. An analogous experiment in which a competition for histidine uptake in the line JT16::AAP2 was tested is described in Example 5.

**Q.** With `O=C(O)[C@H]1NCC(O)C1O` (some centres unmarked) [3,4-di-OH proline] as the molecule, how does the “% remaining transport activity” value (1 x excess of competitor) read?
**A.** Its value is 86%.

**Q.** And the “% remaining transport activity” value (10 x excess of competitor)?
**A.** The value was 49%.
